This passage reports EC50 and IC50 results from US10501479B2, “Benzenesulfonyl-asymmetric ureas and medical uses thereof” (HELSINN HEALTHCARE SA, priority 2016, dated 2019).

For assay [1], the target named is T1, recombinant human ghrelin receptor (HEK293/GRLN) (Homo sapiens, UniProt Q92847).
T1 construct: expressed in transfected cells
Briefly: Ghrelin inverse agonist potency (EC50) with IP-1 (IP-One HTRF) assay. The format is cell-based. The conditions noted are these: IP-1 assay. The protocol:
Evaluation of Ghrelin Inverse Agonist Potency (EC50) with IP-1 Assay:
HEK293 cells stably expressing recombinant human ghrelin receptor (HEK293/GRLN) were used in the IP-One HTRF assay. One day before the test, cells were seeded at a density of 1.5×10^4/well in a Matrigel® coated 384-well plate with 30 μL of complete Dulbecco's Modified Eagle's Medium and incubated at 37° C. in 5% CO2 for 18-22 hours. On the test day, the medium was removed by centrifugation at 600 rpm for 30 seconds, and 20 μL of stimulation buffer containing 1x tested compound was added with Bravo (Agilent technologies). The plate was then incubated at 37° C. 5% CO2 for 1 hour. After the incubation, 5 μL of IP1-d2 and 5 μL of Tb-Cryp were added to all wells using multidrop Combi(Thermo). After additional incubation at room temperature for 1 hour, the plates were read on Envision with 620 and 665 (Perkin Elmer).
(Time-resolved FRET reads energy transfer from a long-lived donor to a nearby acceptor.)

The target in assay [2] is T2, GHSR-1a (HEK293/GHSR1a cell line) (Homo sapiens, UniProt Q92847).
T2 construct: expressed in transfected cells; host or cells: HEK293/GHSR1a cell line
Briefly: Ghrelin antagonist potency (IC50) with calcium FLIPR assay, ghrelin 10 nM. The format is cell-based. The conditions noted are these: ghrelin antagonist potency. The protocol:
Evaluation of Ghrelin Agonist (EC50) and Antagonist Potency (IC50) with Calcium FLIPR Assay:
The intracellular calcium assay was carried out in a 384-well format FLIPR™ (Molecular Device) HEK293/GHSR1a cell line. Cells were seeded 24 hr prior to the experiments at an optimal density per well. Preincubation with selected calcium dye lasted for 30-60 min at room temperature or 37° C. Test compounds, dissolved in DMSO, were added at the appropriate time and incubated for 15 min followed by the addition of ghrelin with FlexStation or FLIPR. Relative fluorescence was monitored by the FLIPR™ Molecular Device. EC50 and IC50 values were estimated from dose-response data using GraphPad Prism software. To check for GHSR-1a agonism, the compound was added at t=20 sec. and the calcium response was followed for 2 minutes. To check for GHSR-1a antagonism, the compound and Ghrelin (10 nM) were added to the cells at t=20 sec. and the calcium response was measured for 2 minutes. The potency of the antagonist was calculated by its ability to reduce the ghrelin response. Dose-response curves were made for relevant antagonists.

Where [3] appears, read: inverse agonist potency, read-out: EC50 (Activity).
Where [4] appears, read: ghrelin inverse agonist potency, read-out: Activity EC50.

Where “and” joins values, the source holds several entries; their conditions need not be identical. Equal values may be shown once. Where a name gives a salt, the structure may show the parent alone. Read-outs that look alike come from different tables or passages of the source.

T2 sequence (Q92847 whole entry): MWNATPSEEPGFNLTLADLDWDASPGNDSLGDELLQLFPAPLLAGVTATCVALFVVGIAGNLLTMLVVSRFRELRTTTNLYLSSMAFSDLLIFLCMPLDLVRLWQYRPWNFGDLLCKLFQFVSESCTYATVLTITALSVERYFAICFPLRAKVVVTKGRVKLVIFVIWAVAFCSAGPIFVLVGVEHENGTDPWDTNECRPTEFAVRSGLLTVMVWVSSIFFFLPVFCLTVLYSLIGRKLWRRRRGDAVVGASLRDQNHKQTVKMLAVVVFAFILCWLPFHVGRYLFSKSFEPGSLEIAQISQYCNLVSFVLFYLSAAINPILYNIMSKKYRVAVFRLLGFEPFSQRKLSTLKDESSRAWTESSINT
T1 sequence (Q92847 whole entry): as above

As a reminder, the EC50 is the concentration giving half of the maximal effect. In general, IC50 refers to the concentration at which inhibition is half-maximal. As to `CC(C)C(C)NC(=O)Nc1ccc(S(=O)(=O)Cc2ccc3c(c2)CN(C)C3)cc1` (stereo not drawn) [H1229, 1-(3-methylbutan-2-yl)-3-(4-(((2-methylisoindolin-5-yl)methyl)sulfonyl)phenyl)urea], the EC50 in assay [1] (setting [3]) was determined as 369 nM. The IC50 in assay [2] (read-out: IC50 (Activity)) is 291 nM.
On the same counts, the results for `C[C@H](NC(=O)Nc1ccc(S(=O)(=O)Cc2ccc3c(c2)COCC3)cc1)c1cccc(Cl)c1Cl` [H1097, (S)-1-(1-(2,3-dichlorophenyl)ethyl)-3-(4-((isochroman-7-ylmethyl)sulfonyl)phenyl)urea] are 363 nM and 1970 nM.
On the same counts, the results for `C[C@H](NC(=O)Nc1ccc(S(=O)(=O)Nc2ccc3c(c2)CNCC3)cc1)c1cccc(Cl)c1Cl` [H1049, (S)-4-(3-(1-(2,3-dichlorophenyl)ethyl)ureido)-N-(1,2,3,4-tetrahydroisoquinolin-7-yl)benzenesulfonamide] are 29.6 nM and 16.3 nM.
For `CC(NC(=O)Nc1ccc(S(=O)(=O)Nc2ccc3c(c2)CNC3)cc1)c1cccc2ccccc12` (stereo not drawn) [H1155, N-(isoindolin-5-yl)-4-(3-(1-(naphthalen-1-yl)ethyl)ureido) benzenesulfonamide] the same measures were 5.03 nM and 4.3 nM.
`CC(NC(=O)Nc1ccc(S(=O)(=O)Nc2ccc(CO)cc2)cc1)c1ccccc1` (stereo not drawn) [H1141, N-(4-(hydroxymethyl)phenyl)-4-(3-(1-phenylethyl)ureido) benzenesulfonamide]: the EC50 in assay [1] (setting [3]) was determined as 562 nM. For the same compound, the half-inhibitory concentration (IC50) in assay [2] (read-out: IC50 (Activity)) stood at 2610 nM.
In the case of `CC(c1ccccc1)N(O)C(=O)Nc1ccc(S(=O)(=O)Cc2ccc3c(c2)CNC3)cc1` (stereo not drawn) [H1526, 1-hydroxy-3-(4-((isoindolin-5-ylmethyl)sulfonyl)phenyl)-1-(1-phenylethyl)urea], the 50% effective concentration (EC50) in assay [1] (setting [4]) is 21.9 nM. Moreover, in assay [2] (read-out: Activity IC50), the 50% inhibitory concentration (IC50) was determined as 31.9 nM.
With `C[C@H](NC(=O)Nc1ccc(S(=O)(=O)Cc2cnc(N)nc2)cc1)c1cccc(Cl)c1Cl` [H1130, (S)-1-(4-(((2-aminopyrimidin-5-yl)methyl)sulfonyl)phenyl)-3-(1-(2,3-dichlorophenyl)ethyl)urea], the EC50 in assay [1] (setting [3]) stood at 1280 nM. In addition, the IC50 in assay [2] (read-out: IC50 (Activity)) stood at 3380 nM.
Consider `C[C@H](NC(=O)Nc1ccc(S(=O)(=O)Cc2ccc3c(c2)CCN3)cc1)c1cccc(Cl)c1Cl` [H1047, (S)-1-(1-(2,3-dichlorophenyl)ethyl)-3-(4-((indolin-5-ylmethyl)sulfonyl)phenyl)urea], for which the EC50 in assay [1] (setting [3]) came to 1160 nM. Moreover, the IC50 in assay [2] (read-out: IC50 (Activity)) was 865 nM.
Turning to `CCOC(=O)N1CCc2cc(CS(=O)(=O)c3ccc(NC(=O)N[C@@H](C)c4cccc(Cl)c4Cl)cc3)ccc2C1` [H1055, ethyl (S)-6-(((4-(3-(1-(2,3-dichlorophenyl)ethyl)ureido)phenyl)sulfonyl)methyl)-3,4-dihydroisoquinoline-2(1H)-carboxylate], in assay [1] (setting [3]), the half-maximal effective concentration (EC50) came to 516 nM. Also, the IC50 in assay [2] (read-out: IC50 (Activity)) worked out at 4470 nM.
`CC(c1ccc2c(c1)CCNC2)S(=O)(=O)c1ccc(NC(=O)N[C@@H](C)c2cccc(Cl)c2Cl)cc1` (stereo partly drawn) [H1102, 1-((S)-1-(2,3-dichlorophenyl)ethyl)-3-(4-((1-(1,2,3,4-tetrahydroisoquinolin-6-yl)ethyl)sulfonyl)phenyl)urea hydrochloride]: the 50% effective concentration (EC50) in assay [1] (setting [3]) is 58.3 nM and 21.6 nM. Moreover, the IC50 in assay [2] (read-out: IC50 (Activity)) was 73.9 nM.
On to `COCc1ccc(CS(=O)(=O)c2ccc(NC(=O)N[C@@H](C)c3cccc(Cl)c3Cl)cc2)cc1` [H1093, (S)-1-(1-(2,3-dichlorophenyl)ethyl)-3-(4-((4-(methoxymethyl)benzyl)sulfonyl)phenyl)urea], for which the concentration giving a half-maximal response (EC50) in assay [1] (setting [3]) worked out at 327 nM. In assay [2] (read-out: IC50 (Activity)), the half-inhibitory concentration (IC50) amounted to 2380 nM.
With `C[C@H](NC(=O)Nc1ccc(S(=O)(=O)Nc2ccc(-c3cnc[nH]3)cc2)cc1)c1cccc(Cl)c1Cl` [H1109, (S)-N-(4-(1H-imidazol-5-yl)phenyl)-4-(3-(1-(2,3-dichlorophenyl)ethyl)ureido) benzenesulfonamide], in assay [1] (setting [3]), the EC50 was found to be 136 nM. Besides, the IC50 in assay [2] (read-out: IC50 (Activity)) stood at 427 nM.
On the same counts, the results for `O=C(NC(=O)c1cc(N2CCOCC2)ccc1Cl)Nc1ccc(S(=O)(=O)Cc2ccc3c(c2)CNC3)cc1` [H1249, 2-chloro-N-((4-((isoindolin-5-ylmethyl)sulfonyl)phenyl)carbamoyl)-5-morpholinobenzamide] are 1630 nM and 3290 nM.
For `Cc1ccc(CS(=O)(=O)c2ccc(NC(=O)N[C@@H](C)c3cccc(Cl)c3Cl)cc2)cc1` [H0964, (S)-1-(1-(2,3-dichlorophenyl)ethyl)-3-(4-((4-methylbenzyl)sulfonyl)phenyl)urea] the same measures were 2480 nM and 4170 nM.
Regarding `CC(NC(=O)Nc1ccc(S(=O)(=O)C(C)c2ccc3c(c2)CN(Cc2ccccc2)C3)cc1)c1ccccc1` (stereo not drawn) [H1233, 1-(4-((1-(2-benzylisoindolin-5-yl)ethyl)sulfonyl)phenyl)-3-(1-phenylethyl)urea], the EC50 in assay [1] (setting [3]) amounted to 170 nM. The IC50 in assay [2] (read-out: IC50 (Activity)) was found to be 225 nM.
On the same counts, the results for `C[C@H](NC(=O)Nc1ccc(S(=O)(=O)Nc2ccc3[nH]ncc3c2)cc1)c1cccc(Cl)c1Cl` [H1106, (S)-4-(3-(1-(2,3-dichlorophenyl)ethyl)ureido)-N-(1H-indazol-5-yl) benzenesulfonamide] are 862 nM and 1430 nM.
Regarding `CC(C)(C)NC(=O)Nc1ccc(S(=O)(=O)Cc2ccc3c(c2)CNC3)cc1` [H1205, 1-(tert-butyl)-3-(4-((isoindolin-5-ylmethyl)sulfonyl)phenyl)urea], the 50% effective concentration (EC50) in assay [1] (setting [3]) is 5340 nM. Also, the IC50 in assay [2] (read-out: IC50 (Activity)) is 9870 nM.
`COc1ccc(C(C)NC(=O)Nc2ccc(S(=O)(=O)Cc3ccc4c(c3)CNC4)cc2)cc1Cl` (stereo not drawn) [H1477, 1-(1-(3-chloro-4-methoxyphenyl)ethyl)-3-(4-((isoindolin-5-ylmethyl)sulfonyl)phenyl)urea]: the EC50 in assay [1] (setting [4]) stood at 17.4 nM. Further, the 50% inhibitory concentration (IC50) in assay [2] (read-out: Activity IC50) was 36.9 nM.
With `C[C@H](NC(=O)Nc1ccc(S(=O)(=O)Cc2ccc(CN)cc2)cc1)c1cccc(Cl)c1Cl` [H1051, (S)-1-(4-((4-(aminomethyl)benzyl)sulfonyl)phenyl)-3-(1-(2,3-dichlorophenyl)ethyl)urea], the concentration for a half-maximal effect (EC50) in assay [1] (setting [3]) is 116 nM. Further, the 50% inhibitory concentration (IC50) in assay [2] (read-out: IC50 (Activity)) was found to be 53.7 nM.
Consider `O=C(NCc1cccc(Cl)c1Cl)Nc1ccc(S(=O)(=O)Cc2ccc3c(c2)CNCC3)cc1` [H1044, 1-(2,3-dichlorobenzyl)-3-(4-(((1,2,3,4-tetrahydroisoquinolin-7-yl)methyl)sulfonyl)phenyl)urea], for which the concentration for a half-maximal effect (EC50) in assay [1] (setting [3]) was 143 nM. Further, the 50% inhibitory concentration (IC50) in assay [2] (read-out: IC50 (Activity)) amounted to 53.1 nM.
Consider `O=C(NCc1ccccc1)Nc1ccc(S(=O)(=O)Cc2ccc3c(c2)CCNC3)cc1` [H1029, 1-benzyl-3-(4-(((1,2,3,4-tetrahydroisoquinolin-6-yl)methyl)sulfonyl)phenyl)urea], for which, in assay [1] (setting [3]), the 50% effective concentration (EC50) came out at 188 nM. For the same compound, in assay [2] (read-out: IC50 (Activity)), the IC50 stood at 332 nM.
In the case of `CC(NC(=O)Nc1ccc(S(=O)(=O)Cc2ccc3c(c2)CCNC3)cc1)c1ccccc1Cl` (stereo not drawn) [H1041, 1-(1-(2-chlorophenyl)ethyl)-3-(4-(((1,2,3,4-tetrahydroisoquinolin-6-yl)methyl)sulfonyl)phenyl)urea], the EC50 in assay [1] (setting [3]) was 55.5 nM. The half-maximal inhibitory concentration (IC50) in assay [2] (read-out: IC50 (Activity)) was determined as 17.4 nM.
On the same counts, the results for `C[C@H](NC(=O)Nc1ccc(S(=O)(=O)Cc2ccc3c(c2)COC3)cc1)c1cccc(Cl)c1Cl` [H1098, (S)-1-(1-(2,3-dichlorophenyl)ethyl)-3-(4-(((1,3-dihydroisobenzofuran-5-yl)methyl)sulfonyl)phenyl)urea] are 649 nM and 12100 nM.
On the same counts, the results for `C[C@H](NC(=O)Nc1ccc(S(=O)(=O)Cc2ccc3c(c2)CCNC3)cc1)c1ccccc1` [H1028, (S)-1-(1-phenylethyl)-3-(4-(((1,2,3,4-tetrahydroisoquinolin-6-yl)methyl)sulfonyl)phenyl)urea] are 234 nM and 414 nM.
`CCNC(=O)Nc1ccc(S(=O)(=O)Cc2ccc3c(c2)CNC3)cc1` [H1180, 1-ethyl-3-(4-((isoindolin-5-ylmethyl)sulfonyl)phenyl)urea]: the EC50 in assay [1] (setting [3]) worked out at 315 nM. In assay [2] (read-out: IC50 (Activity)), the half-maximal inhibitory concentration (IC50) came out at 14700 nM.
On to `CN1Cc2ccc(CS(=O)(=O)c3ccc(NC(=O)NCC(C)(C)C)cc3)cc2C1` [H1228, 1-(4-(((2-methylisoindolin-5-yl)methyl)sulfonyl)phenyl)-3-neopentylurea], for which the EC50 in assay [1] (setting [3]) was 1260 nM. Further, the IC50 in assay [2] (read-out: IC50 (Activity)) came out at 766 nM.
For `C[C@H](NC(=O)Nc1ccc(S(=O)(=O)Cc2ccc(COS(=O)(=O)O)cc2)cc1)c1cccc(Cl)c1Cl` [H1181, (S)-4-(((4-(3-(1-(2,3-dichlorophenyl)ethyl)ureido)phenyl)sulfonyl)methyl) benzyl hydrogen sulfate] the same measures were 957 nM and 3310 nM.
